Measured values taken from patent US20220313670A1, “Methods Of Treating Fabry Disease In Patients Having Renal Impairment” (Amicus Therapeutics, Inc., priority 2019, published 2022).
Like-named read-outs stand apart in the source and are kept apart here.

Experiments:
[1] = system: Fabry disease; assay: Phase 3 studies (FACETS, ATTRACT) of migalastat 150 mg every other day in Fabry patients; assay type: in vivo, human
Excerpt: One or more of the dosing regimens described herein are particularly suitable for Fabry patients who have some degree of renal impairment. […]00925301) was a 24-month trial, including a 6-month double-blind, placebo-controlled period, in 67 enzyme replacement therapy (ERT)-naive patients. ATTRACT (012, NCT01218659) was an active-controlled, 18-month trial in 57 ERT-experienced patients with a 12-month open-label extension (OLE). […] Accordingly, both studies included Fabry patients with normal renal function as well as patients with mild and moderate renal impairment, but neither study included patients with severe renal impairment. […] With a slowing in the ability to clear the drug from the body there can be an increasing exposure to the patient to the drug. Thus, in some embodiments a dose adjustment protocol is provided to inform physicians of the best dose taking into consideration the current clearance profile from the body. Dose adjustment is particularly difficult with a chaperone because it is an inhibitor, and a delicate balance must be reached such that the chaperone is present in amounts great enough to be therapeutic, but also not so great that the chaperone inhibits enzyme function (which would exacerbate the disease).

[2] = Pharmacokinetics of migalastat HCl in a Fabry patient with severe renal impairment (P3, 2004-5029; Example 6); assay type: in vivo, human
Procedure: Migalastat levels can be measured via methods known in the art. […] Microcentrifuge tubes containing 100 μl of the tissue homogenate or 50 μl of plasma may then be spiked with 500 ng/mL 13C d2-AT1001 HCl internal standard (manufactured by MDS Pharma Services). A 600 μl volume of 5 mM HCl in 95/5 MeOH:H2O can then be added and the tubes vortexed for 2 minutes, followed by centrifugation at 21000×g for 10 minutes at room temperature. The supernatants may then be collected into a clean, 96-well plate, diluted with 5 mM HCl in dH2O and applied to a 96-well solid phase extraction (SPE) plate (Waters Corp., Milford Mass.). […] The liquid chromatography can be conducted using an ACN:water:formate binary mobile phase system (mobile phase A: 5 mM ammonium formate, 0.5% formic acid in 95:5 ACN:water; mobile phase B: 5 mM ammonium formate, 0.5% formic acid in 5:47.5:47.5 ACN:MeOH:water) with a flow rate of 0.7 mL/minute on an Halo HILIC column (150×4.6 mm, 2.7 μm) (Advanced Materials Technology, Inc.). MS/MS analysis may be carried out under APCi positive ion mode. The same procedure may be followed for migalastat determination in plasma except without homogenization. […] A 12-point calibration curve and quality control samples may be prepared. […] To derive approximate molar concentrations, one gram of tissue may be estimated as one mL of volume.
PK data was collected every three months.

[3] = system: cardiac repolarization; conditions: 150 mg and 1250 mg single doses; cited from earlier work
[4] = Severe RI Fabry patient 2004-5029 (P3), CLcr 21, 5/17, Q4D regimen
[5] = human, plasma, Severe RI Fabry patient 2004-5029 (P3), CLcr 21, 5/17, Q4D regimen

Which “disease progression as shown by surrogate markers” value [1] does the source give for `OC[C@H]1NC[C@H](O)[C@@H](O)[C@H]1O` [migalastat, (2R,3S,4R,55)-2-(hydroxymethyl) piperdine-3,4,5-triol] here?
The value was “slowed the progression of the disease”.

And the “Plasma Migalastat Conc” value ([2]; Fabry patient P3, May ′17 (Q4D), 0 h)?
The value was “BLQ”.

What about the CL/F [2, 4] of the same compound?
Its CL/F is 4.67 L/h.

And the Frel [2, 4]?
The Frel was 2.6.

What about the concentration at 0 h ([2]; human, plasma, Plasma Migalastat Conc, Fabry patient P3, Aug ′15, 0 h) of the same compound?
The concentration at 0 h was 36.4 ng/mL.

What about the concentration at 3 h ([2]; human, plasma, Plasma Migalastat Conc, Fabry patient P3, Aug ′15, 3 h) of the same compound?
Its concentration at 3 h is 2160 ng/mL.

And the concentration at 24 h ([2]; human, plasma, Plasma Migalastat Conc, Fabry patient P3, Aug ′15, 24 h)?
The concentration at 24 h was 211 ng/mL.

What about the concentration at 48 h ([2]; human, plasma, Plasma Migalastat Conc, Fabry patient P3, Aug ′15, 48 h) of the same compound?
Its concentration at 48 h is 62.4 ng/mL.

And the concentration at 48 h ([2]; human, plasma, Plasma Migalastat Conc, Fabry patient P3, Aug ′17 (Q4D), 48 h)?
Its concentration at 48 h is 130 ng/mL.

And the concentration at 96 h ([2]; human, plasma, Plasma Migalastat Conc, Fabry patient P3, Aug ′17 (Q4D), 96 h)?
Its concentration at 96 h is 61.3 ng/mL.

What about the concentration at 0 h ([2]; human, plasma, Plasma Migalastat Conc, Fabry patient P3, Feb ′15, 0 h) of the same compound?
Its concentration at 0 h is 19.9 ng/mL.

What about the concentration at 3 h ([2]; human, plasma, Plasma Migalastat Conc, Fabry patient P3, Feb ′15, 3 h) of the same compound?
The concentration at 3 h was 1620 ng/mL.

And the concentration at 24 h ([2]; human, plasma, Plasma Migalastat Conc, Fabry patient P3, Feb ′15, 24 h)?
The concentration at 24 h was 168 ng/mL.

And the concentration at 48 h ([2]; human, plasma, Plasma Migalastat Conc, Fabry patient P3, Feb ′15, 48 h)?
Its concentration at 48 h is 41.8 ng/mL.

And the concentration at 0 h ([2]; human, plasma, Plasma Migalastat Conc, Fabry patient P3, Mar ′11, 0 h)?
Its concentration at 0 h is 38.1 ng/mL.

What about the concentration at 3 h ([2]; human, plasma, Plasma Migalastat Conc, Fabry patient P3, Mar ′11, 3 h) of the same compound?
Its concentration at 3 h is 1560 ng/mL.

And the concentration at 4 h ([2]; human, plasma, Plasma Migalastat Conc, Fabry patient P3, Mar ′11, 4 h)?
The concentration at 4 h was 1570 ng/mL.

And the concentration at 8 h ([2]; human, plasma, Plasma Migalastat Conc, Fabry patient P3, Mar ′11, 8 h)?
The concentration at 8 h was 802 ng/mL.

And the concentration at 3 h ([2]; human, plasma, Plasma Migalastat Conc, Fabry patient P3, May ′17 (Q4D), 3 h)?
Its concentration at 3 h is 2110 ng/mL.

And the concentration at 4 h ([2]; human, plasma, Plasma Migalastat Conc, Fabry patient P3, May ′17 (Q4D), 4 h)?
Its concentration at 4 h is 1970 ng/mL.

And the concentration at 8 h ([2]; human, plasma, Plasma Migalastat Conc, Fabry patient P3, May ′17 (Q4D), 8 h)?
The concentration at 8 h was 1380 ng/mL.

What about the concentration at 24 h ([2]; human, plasma, Plasma Migalastat Conc, Fabry patient P3, May ′17 (Q4D), 24 h) of the same compound?
Its concentration at 24 h is 358 ng/mL.

And the concentration at 48 h ([2]; human, plasma, Plasma Migalastat Conc, Fabry patient P3, May ′17 (Q4D), 48 h)?
The concentration at 48 h was 77.4 ng/mL.

And the concentration at 96 h ([2]; human, plasma, Plasma Migalastat Conc, Fabry patient P3, May ′17 (Q4D), 96 h)?
The concentration at 96 h was 18.4 ng/mL.

What about the concentration at 48 h ([2]; human, plasma, Plasma Migalastat Conc, Fabry patient P3, Nov ′17 (Q4D), 48 h) of the same compound?
The concentration at 48 h was 401 ng/mL.

And the concentration at 96 h ([2]; human, plasma, Plasma Migalastat Conc, Fabry patient P3, Nov ′17 (Q4D), 96 h)?
The concentration at 96 h was 86.2 ng/mL.

And the concentration at 48 h ([2]; human, plasma, Severe RI Fabry patient 2004-5029 (P3), CLcr 15, 11/17, Q4D regimen, read-out: C48 h)?
Its concentration at 48 h is 401 ng/mL.

And the concentration at 96 h ([2]; human, plasma, Severe RI Fabry patient 2004-5029 (P3), CLcr 15, 11/17, Q4D regimen, read-out: C96 h)?
Its concentration at 96 h is 86.2 ng/mL.

What about the concentration at 48 h ([2]; human, plasma, Severe RI Fabry patient 2004-5029 (P3), CLcr 19, 8/17, Q4D regimen, read-out: C48 h) of the same compound?
The concentration at 48 h was 130 ng/mL.

And the concentration at 96 h ([2]; human, plasma, Severe RI Fabry patient 2004-5029 (P3), CLcr 19, 8/17, Q4D regimen, read-out: C96 h)?
Its concentration at 96 h is 61.3 ng/mL.

What about the AUC(0-inf) [2, 5] of the same compound?
Its AUC(0-inf) is 32100 ng·h/mL.

What about the AUC(0-t) [2, 5] of the same compound?
The AUC(0-t) was 31900 ng·h/mL.

What about the Cmax [2, 5] of the same compound?
Its Cmax is 2250 ng/mL.

What about the half-life [2, 5] of the same compound?
Its half-life is 792 min.

What about the tmax [2, 5] of the same compound?
Its tmax is 2 h.

What about the concentration at 48 h ([2]; human, plasma, Severe RI Fabry patient 2004-5029 (P3), CLcr 21, 5/17, Q4D regimen, read-out: C48 h) of the same compound?
The concentration at 48 h was 77.4 ng/mL.

What about the concentration at 96 h ([2]; human, plasma, Severe RI Fabry patient 2004-5029 (P3), CLcr 21, 5/17, Q4D regimen, read-out: C96 h) of the same compound?
Its concentration at 96 h is 18.4 ng/mL.

And the “effect on cardiac repolarization” value [3]?
The value was “negative”.
